According to US20080009418A1, “Selective Inhibitors” (Alchemia LTD., priority 2004, published 2008):

What was measured:
Human κ-Opioid (KOP) = target: T1, Human κ-Opioid (KOP) (Homo sapiens, UniProt P41145); assay: Radioligand binding, human κ-opioid (KOP) membranes, filtration, [3H]-Diprenorphine; conditions: compound at 10 μM; [3H]-Diprenorphine, human KOP membranes
T1 construct: purchased Perkin Elmer Biosignal
Method in brief: (§1)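 Membranes from cloned human receptors were incubated with compound and radioligand for 1 hour at room temperature. Bound ligand was collected on 0.3% PEI-soaked filters, washed with cold 50 mM Tris-HCl pH 7.4, and counted by scintillation. Percent inhibition was computed against DMSO totals and reference-ligand nonspecific wells.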

Human μ-opioid (MOP) = target: T2, Human μ-opioid (MOP) (Homo sapiens, UniProt P35372); assay: Radioligand binding, human μ-opioid (MOP) membranes, FlashPlate, [3H]-Naloxone; conditions: compound at 10 μM; [3H]-Naloxone, human MOP membranes
T2 construct: purchased Perkin Elmer Biosignal
Method in brief: (§2)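 Cloned human receptor membranes were coated onto FlashPlate wells and incubated with radioligand and compound (added from a 0.5 mM DMSO daughter plate) for 1 hour at room temperature in the dark. Scintillation counting gave percent inhibition, with DMSO defining total and reference ligand defining non-specific binding.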

Human Melanocortin (MC3) = target: T3, Human Melanocortin (MC3) (Homo sapiens, UniProt P41968); assay: Radioligand binding, human melanocortin MC3 membranes, FlashPlate, [125I]-NDP-αMSH; conditions: compound at 10 μM; [125I]-NDP-αMSH, human MC3 membranes
T3 construct: purchased Perkin Elmer Biosignal
Method in brief: as §2

Human Melanocortin (MC4) = target: T4, Human Melanocortin (MC4) (Homo sapiens, UniProt P32245); assay: Radioligand binding, human melanocortin MC4 membranes, FlashPlate, [125I]-NDP-αMSH; conditions: compound at 10 μM; [125I]-NDP-αMSH, human MC4 membranes
T4 construct: purchased Perkin Elmer Biosignal
Method in brief: as §2

Human δ-opioid (DOP) = target: T5, Human δ-opioid (DOP) (Homo sapiens, UniProt P41143); assay: Radioligand binding, human δ-opioid (DOP) membranes, FlashPlate, [3H]-Bremazocine; conditions: compound at 10 μM; [3H]-Bremazocine, human DOP membranes
T5 construct: purchased Perkin Elmer Biosignal
Method in brief: as §2

[1] = target: T6, Human neuropeptide Y (NPY-Y1) (Homo sapiens, UniProt P25929); assay: Radioligand binding, human neuropeptide Y NPY-Y1 membranes, FlashPlate, [125I]-PYY; conditions: compound at 10 μM; [125I]-PYY, human NPY-Y1 membranes
T6 construct: purchased Perkin Elmer Biosignal
T6 sequence (P25929 1-384): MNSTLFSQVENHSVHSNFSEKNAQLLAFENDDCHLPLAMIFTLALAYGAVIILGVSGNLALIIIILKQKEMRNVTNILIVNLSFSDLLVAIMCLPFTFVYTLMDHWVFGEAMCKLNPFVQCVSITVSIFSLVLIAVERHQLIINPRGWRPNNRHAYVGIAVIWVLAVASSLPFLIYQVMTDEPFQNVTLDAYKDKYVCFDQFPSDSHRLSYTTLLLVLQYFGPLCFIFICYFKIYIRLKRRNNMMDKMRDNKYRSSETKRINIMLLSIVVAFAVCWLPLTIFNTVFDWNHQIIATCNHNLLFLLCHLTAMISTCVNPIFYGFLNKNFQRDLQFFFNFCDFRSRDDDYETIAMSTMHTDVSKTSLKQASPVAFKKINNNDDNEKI
Method in brief: as §2

Human neurokinin (NK1) = target: T7, Human neurokinin (NK1) (Homo sapiens, UniProt P25103); assay: Radioligand binding, human neurokinin NK1 membranes, filtration, [125I]-Substance P; conditions: compound at 10 μM; [125I]-Substance P, human NK1 membranes
T7 construct: purchased Perkin Elmer Biosignal
Method in brief: as §1

[2] = target: T8, Human melanin-concentrating hormone (MCH1) (Homo sapiens, UniProt Q99705); assay: Radioligand binding, human melanin-concentrating hormone MCH1 membranes, FlashPlate, [125I]-S36057; conditions: compound at 10 μM; [125I]-S36057, human MCH1 membranes
T8 construct: purchased Perkin Elmer Biosignal
Method in brief: as §2

Human melanocortin (MC5) = target: T9, Human melanocortin (MC5) (Homo sapiens, UniProt P33032); assay: Radioligand binding, human melanocortin MC5 membranes, FlashPlate, [125I]-NDP-αMSH; conditions: compound at 10 μM; [125I]-NDP-αMSH, human MC5 membranes
T9 construct: purchased Perkin Elmer Biosignal
Method in brief: as §2

Mouse urotensin (mUR2) = target: T10, Mouse urotensin (mUR2) (Mus musculus, UniProt Q8VIH9); assay: Radioligand binding, mouse urotensin mUR2 membranes, FlashPlate, [125I]-Urotensin II; conditions: compound at 10 μM; [125I]-Urotensin II, mouse mUR2 membranes
T10 construct: purchased Perkin Elmer Biosignal
T10 sequence (Q8VIH9 1-385): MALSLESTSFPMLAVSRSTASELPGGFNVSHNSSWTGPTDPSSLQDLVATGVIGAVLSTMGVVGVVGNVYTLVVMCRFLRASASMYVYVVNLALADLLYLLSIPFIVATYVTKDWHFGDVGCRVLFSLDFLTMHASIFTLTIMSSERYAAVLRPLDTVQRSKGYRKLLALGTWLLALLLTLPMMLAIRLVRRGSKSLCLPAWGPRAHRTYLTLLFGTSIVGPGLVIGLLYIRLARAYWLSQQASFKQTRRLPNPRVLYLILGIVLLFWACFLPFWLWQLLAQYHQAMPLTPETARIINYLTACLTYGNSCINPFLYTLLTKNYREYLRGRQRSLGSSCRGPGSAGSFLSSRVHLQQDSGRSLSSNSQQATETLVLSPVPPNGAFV
Method in brief: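 Cloned mouse urotensin (mUR2) receptor membranes from Perkin Elmer Biosignal were immobilized in FlashPlate microplates using a proprietary coating. Each well got 19.5 μl buffer, then 0.5 μl of DMSO, reference ligand, or compound. Adding 5 μl of [125I]-Urotensin II, diluted to 5× final concentration in binding buffer, started binding. Plates were sealed with TopSeal-A and incubated 1 hour at room temperature in the dark. Wells were counted for 30 seconds each on a TopCount after a 60-second delay, and percentage inhibition was calculated.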

Human opioid (ORL1) = target: T11, Human opioid (ORL1) (Homo sapiens, UniProt P41146); assay: Radioligand binding, human opioid ORL1 membranes, FlashPlate, [125I]-Nociceptin; conditions: compound at 10 μM; [125I]-Nociceptin, human ORL1 membranes
T11 construct: purchased Perkin Elmer Biosignal
Method in brief: as §2

T11 sequence (P41146 whole entry): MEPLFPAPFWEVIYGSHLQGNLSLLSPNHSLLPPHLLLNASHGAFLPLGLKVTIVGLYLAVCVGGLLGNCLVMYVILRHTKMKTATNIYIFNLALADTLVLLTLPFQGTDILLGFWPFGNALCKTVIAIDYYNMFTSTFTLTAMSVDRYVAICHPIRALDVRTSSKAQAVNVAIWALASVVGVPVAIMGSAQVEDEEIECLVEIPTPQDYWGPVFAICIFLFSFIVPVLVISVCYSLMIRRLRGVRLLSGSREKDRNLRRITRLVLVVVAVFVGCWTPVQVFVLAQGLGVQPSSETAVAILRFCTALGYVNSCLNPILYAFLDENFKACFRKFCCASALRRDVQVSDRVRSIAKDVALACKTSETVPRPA
T1 sequence (P41145 whole entry): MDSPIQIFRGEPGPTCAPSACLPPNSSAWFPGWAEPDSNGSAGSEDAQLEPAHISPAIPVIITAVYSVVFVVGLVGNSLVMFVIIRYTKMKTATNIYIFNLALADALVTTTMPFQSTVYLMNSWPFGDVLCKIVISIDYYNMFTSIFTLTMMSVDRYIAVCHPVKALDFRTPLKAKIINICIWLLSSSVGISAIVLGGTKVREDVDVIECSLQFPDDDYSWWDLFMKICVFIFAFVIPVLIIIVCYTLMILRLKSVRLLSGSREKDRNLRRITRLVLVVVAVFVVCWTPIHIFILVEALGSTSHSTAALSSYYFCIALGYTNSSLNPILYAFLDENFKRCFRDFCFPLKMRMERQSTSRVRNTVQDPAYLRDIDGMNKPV
T9 sequence (P33032 whole entry): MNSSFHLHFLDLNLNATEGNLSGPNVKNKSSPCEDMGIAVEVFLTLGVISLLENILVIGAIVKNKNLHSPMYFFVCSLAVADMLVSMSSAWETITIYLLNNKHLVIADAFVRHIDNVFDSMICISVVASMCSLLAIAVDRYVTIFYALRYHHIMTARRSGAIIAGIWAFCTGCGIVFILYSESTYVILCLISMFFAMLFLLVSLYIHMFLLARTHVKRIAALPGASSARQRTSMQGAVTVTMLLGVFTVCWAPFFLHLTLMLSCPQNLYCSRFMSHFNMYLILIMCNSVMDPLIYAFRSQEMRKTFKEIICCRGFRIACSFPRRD
T4 sequence (P32245 whole entry): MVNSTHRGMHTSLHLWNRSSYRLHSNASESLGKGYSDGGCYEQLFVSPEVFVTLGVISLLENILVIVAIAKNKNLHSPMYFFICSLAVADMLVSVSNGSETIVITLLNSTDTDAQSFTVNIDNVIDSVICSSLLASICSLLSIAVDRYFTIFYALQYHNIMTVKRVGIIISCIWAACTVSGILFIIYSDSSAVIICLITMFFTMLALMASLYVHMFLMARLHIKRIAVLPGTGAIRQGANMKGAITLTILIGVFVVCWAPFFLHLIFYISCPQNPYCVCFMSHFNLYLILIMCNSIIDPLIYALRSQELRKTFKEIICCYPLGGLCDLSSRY
T3 sequence (P41968 whole entry): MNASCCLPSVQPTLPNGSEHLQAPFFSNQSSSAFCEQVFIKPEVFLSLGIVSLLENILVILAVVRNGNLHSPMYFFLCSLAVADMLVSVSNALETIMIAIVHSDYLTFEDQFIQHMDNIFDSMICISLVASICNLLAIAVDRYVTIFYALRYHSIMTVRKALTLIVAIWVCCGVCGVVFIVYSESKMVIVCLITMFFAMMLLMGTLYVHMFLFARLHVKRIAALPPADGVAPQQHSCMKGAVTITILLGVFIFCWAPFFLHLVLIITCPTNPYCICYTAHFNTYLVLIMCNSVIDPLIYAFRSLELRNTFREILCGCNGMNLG
T2 sequence (P35372 whole entry): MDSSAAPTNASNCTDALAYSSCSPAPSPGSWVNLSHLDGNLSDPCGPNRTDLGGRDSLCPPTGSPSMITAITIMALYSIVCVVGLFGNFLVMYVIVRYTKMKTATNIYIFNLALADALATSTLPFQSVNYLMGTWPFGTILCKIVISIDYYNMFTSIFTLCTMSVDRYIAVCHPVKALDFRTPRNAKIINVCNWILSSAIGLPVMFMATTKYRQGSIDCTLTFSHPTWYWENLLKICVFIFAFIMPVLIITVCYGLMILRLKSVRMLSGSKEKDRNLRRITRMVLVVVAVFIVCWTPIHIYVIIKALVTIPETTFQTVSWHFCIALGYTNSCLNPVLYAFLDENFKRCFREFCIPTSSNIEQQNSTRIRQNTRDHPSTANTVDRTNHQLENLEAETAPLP
T8 sequence (Q99705 whole entry): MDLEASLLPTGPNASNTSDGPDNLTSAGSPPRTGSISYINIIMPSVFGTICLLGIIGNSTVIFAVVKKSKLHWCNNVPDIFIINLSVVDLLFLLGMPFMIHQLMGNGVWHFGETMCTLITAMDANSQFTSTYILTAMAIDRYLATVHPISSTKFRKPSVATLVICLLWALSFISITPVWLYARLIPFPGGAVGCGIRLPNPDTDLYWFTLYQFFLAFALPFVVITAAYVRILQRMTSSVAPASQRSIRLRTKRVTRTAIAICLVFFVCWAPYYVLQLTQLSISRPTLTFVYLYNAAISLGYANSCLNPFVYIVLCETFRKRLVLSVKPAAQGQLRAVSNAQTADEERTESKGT
T5 sequence (P41143 whole entry): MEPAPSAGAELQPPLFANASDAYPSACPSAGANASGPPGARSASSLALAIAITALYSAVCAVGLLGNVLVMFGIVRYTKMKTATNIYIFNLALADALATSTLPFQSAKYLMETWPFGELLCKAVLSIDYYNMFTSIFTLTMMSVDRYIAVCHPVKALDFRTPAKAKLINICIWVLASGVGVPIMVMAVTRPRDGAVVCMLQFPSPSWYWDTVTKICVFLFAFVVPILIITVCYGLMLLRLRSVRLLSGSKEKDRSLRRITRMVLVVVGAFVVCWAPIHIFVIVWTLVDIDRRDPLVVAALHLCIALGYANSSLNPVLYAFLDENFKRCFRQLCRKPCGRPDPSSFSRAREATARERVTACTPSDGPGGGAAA
T7 sequence (P25103 whole entry): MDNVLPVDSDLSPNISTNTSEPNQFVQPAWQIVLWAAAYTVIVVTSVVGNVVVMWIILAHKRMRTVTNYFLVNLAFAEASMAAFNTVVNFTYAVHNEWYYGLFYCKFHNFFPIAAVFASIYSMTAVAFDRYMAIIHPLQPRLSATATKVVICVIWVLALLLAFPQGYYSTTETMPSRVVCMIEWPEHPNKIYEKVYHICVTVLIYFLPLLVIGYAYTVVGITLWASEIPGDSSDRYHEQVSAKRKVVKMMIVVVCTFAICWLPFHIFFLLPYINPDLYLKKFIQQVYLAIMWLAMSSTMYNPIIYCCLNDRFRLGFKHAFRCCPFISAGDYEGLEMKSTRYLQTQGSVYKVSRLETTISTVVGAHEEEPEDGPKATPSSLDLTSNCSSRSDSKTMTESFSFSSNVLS

SMILES | A2: inhibition of radioligand binding (Human κ-Opioid (KOP)) | A7: inhibition of radioligand binding (Human μ-opioid (MOP)) | A3: inhibition of radioligand binding (Human Melanocortin (MC3)) | A4: inhibition of radioligand binding (Human Melanocortin (MC4)) | A1: inhibition of radioligand binding (Human δ-opioid (DOP)) | A9: inhibition of radioligand binding [1] | A8: inhibition of radioligand binding (Human neurokinin (NK1)) | A6: inhibition of radioligand binding [2] | A5: inhibition of radioligand binding (Human melanocortin (MC5)) | A11: inhibition of radioligand binding (Mouse urotensin (mUR2)) | A10: inhibition of radioligand binding (Human opioid (ORL1))
N=C(N)NCC(=O)NC1C(OCc2ccc(Cl)cc2)OC(COCc2ccc3ccccc3c2)C(O)C1OCc1ccc(Cl)cc1 (stereo not shown) [compound 417] | − (“−” indicates less than 50% inhibition at 10 μM) | − (“−” indicates less than 50% inhibition at 10 μM) | + (“+” indicates greater than 50% inhibition at 10 μM) | + (“+” indicates greater than 50% inhibition at 10 μM) | − (“−” indicates less than 50% inhibition at 10 μM) | − (“−” indicates less than 50% inhibition at 10 μM) | + (“+” indicates greater than 50% inhibition at 10 μM) | + (“+” indicates greater than 50% inhibition at 10 μM) | + (“+” indicates greater than 50% inhibition at 10 μM) | − (“−” indicates less than 50% inhibition at 10 μM) | − (“−” indicates less than 50% inhibition at 10 μM)
N=C(N)NCC(=O)NC1C(OCc2ccc(Cl)cc2)OC(COCc2ccccc2)C(O)C1OCc1ccc(Cl)cc1 (stereo not shown) [compound 418] | − (“−” indicates less than 50% inhibition at 10 μM) | − (“−” indicates less than 50% inhibition at 10 μM) | + (“+” indicates greater than 50% inhibition at 10 μM) | + (“+” indicates greater than 50% inhibition at 10 μM) | − (“−” indicates less than 50% inhibition at 10 μM) | − (“−” indicates less than 50% inhibition at 10 μM) | + (“+” indicates greater than 50% inhibition at 10 μM) | + (“+” indicates greater than 50% inhibition at 10 μM) | + (“+” indicates greater than 50% inhibition at 10 μM) | − (“−” indicates less than 50% inhibition at 10 μM) | + (“+” indicates greater than 50% inhibition at 10 μM)
N=C(N)NCC(=O)NC1C(OCc2ccc(Cl)cc2)OC(COCc2ccc(Cl)cc2)C(O)C1OCc1ccc(Cl)cc1 (stereo not shown) [compound 419] | − (“−” indicates less than 50% inhibition at 10 μM) | − (“−” indicates less than 50% inhibition at 10 μM) | + (“+” indicates greater than 50% inhibition at 10 μM) | + (“+” indicates greater than 50% inhibition at 10 μM) | − (“−” indicates less than 50% inhibition at 10 μM) | − (“−” indicates less than 50% inhibition at 10 μM) | + (“+” indicates greater than 50% inhibition at 10 μM) | + (“+” indicates greater than 50% inhibition at 10 μM) | + (“+” indicates greater than 50% inhibition at 10 μM) | − (“−” indicates less than 50% inhibition at 10 μM) | + (“+” indicates greater than 50% inhibition at 10 μM)
N=C(N)NCC(=O)NC1C(OCc2ccc(Cl)cc2)OC(COCc2ccc3ccccc3c2)C(O)C1OCc1ccc2ccccc2c1 (stereo not shown) [compound 420] | − (“−” indicates less than 50% inhibition at 10 μM) | − (“−” indicates less than 50% inhibition at 10 μM) | + (“+” indicates greater than 50% inhibition at 10 μM) | + (“+” indicates greater than 50% inhibition at 10 μM) | − (“−” indicates less than 50% inhibition at 10 μM) | − (“−” indicates less than 50% inhibition at 10 μM) | + (“+” indicates greater than 50% inhibition at 10 μM) | − (“−” indicates less than 50% inhibition at 10 μM) | + (“+” indicates greater than 50% inhibition at 10 μM) | − (“−” indicates less than 50% inhibition at 10 μM) | + (“+” indicates greater than 50% inhibition at 10 μM)
N=C(N)NCC(=O)NC1C(OCc2ccc(Cl)cc2)OC(COCc2ccccc2)C(O)C1OCc1ccc2ccccc2c1 (stereo not shown) [compound 421] | − (“−” indicates less than 50% inhibition at 10 μM) | − (“−” indicates less than 50% inhibition at 10 μM) | + (“+” indicates greater than 50% inhibition at 10 μM) | + (“+” indicates greater than 50% inhibition at 10 μM) | − (“−” indicates less than 50% inhibition at 10 μM) | − (“−” indicates less than 50% inhibition at 10 μM) | + (“+” indicates greater than 50% inhibition at 10 μM) | + (“+” indicates greater than 50% inhibition at 10 μM) | + (“+” indicates greater than 50% inhibition at 10 μM) | − (“−” indicates less than 50% inhibition at 10 μM) | + (“+” indicates greater than 50% inhibition at 10 μM)
